Series [1] deals with Caenorhabditis elegans. As to the kind of experiment: Toxicity in L1 stage Caenorhabditis elegans N2 assessed as viability and reproduction at 10 uM. The settings on record: in vivo. The series is classed as organism-based.
Series [2] relates to MCF7. As to the kind of experiment: Antiproliferative activity against human MCF7 cells after 72 hrs by MTT assay. It is filed as functional, cell-based. The settings on record: MCF7, 72 h. (Tetrazolium assays rely on reduction of a dye to a coloured formazan, in cell work by metabolically active cells.)
In series [3] the test system is MDA-MB-231. The experiment in a line: Antimigratory activity in human MDA-MB-231 cells after 24 hrs by wound healing assay. It is filed as functional, cell-based. The settings on record: MDA-MB-231, 24 h.
Series [4] deals with MDA-MB-231. The experiment in a line: Antiproliferative activity against human MDA-MB-231 cells after 72 hrs by MTT assay. It is filed as functional, cell-based. The settings on record: MDA-MB-231, 72 h.
Series [5] concerns Caenorhabditis elegans. The experiment in a line: Toxicity in L1 stage Caenorhabditis elegans N2 assessed as viability and reproduction at 50 uM. The settings on record: in vivo. It is filed as organism-based.
For series [6], the system named is Caenorhabditis elegans. As to the kind of experiment: In vivo inhibition of BK channel in L1 stage Caenorhabditis elegans N2 assessed as increase in reversals at 1 uM. The series is classed as organism-based.

As usually defined, the IC50 is the concentration that gives 50% inhibition. Read a low IC50 as inhibition by little substance. In the case of `C=C1Cc2c(Br)cc3[nH]c4c5c3c2[C@H]2[C@@H]1C[C@@H]2C(C)(C)O[C@H]5[C@@H]1CC[C@@]2(O)[C@@]35O[C@@H]3[C@@H](O)[C@@H](C(=C)C)O[C@H]5CC[C@]2(C)[C@]41C`, the Activity entry in series [1] and in series [5] was “Non-toxic” each time. Besides, the IC50 was 19.3 µM in series [2], 30.3 µM in series [3] and 18.8 µM in series [4].
Consider `C=C(C)[C@H]1O[C@H]2CC[C@@]3(C)[C@@](O)(CC[C@H]4[C@@H]5OC(C)(C)[C@H]6C[C@@H]7C(=C)Cc8c(Br)cc9[nH]c(c5c9c8[C@@]76O)[C@@]43C)[C@]23O[C@@H]3[C@H]1O`, for which the Activity result in series [1] was “Non-toxic”; in series [6] it was “Toxic”; in series [5], “Non-toxic”. The IC50 was 16.7 µM in series [2], 9.6 µM in series [3] and 8.5 µM in series [4].
In the case of `CC(C)=CCC[C@]1(C)[C@@H](O)CC[C@@]2(C)[C@H]1CC[C@H]1Cc3c([nH]c4ccccc34)[C@@]12C` [EMINDOLE SB], the Activity entry in series [1], in series [6] and in series [5] was “Non-toxic” each time. Moreover, the values for the IC50 in series [2], in series [3] and in series [4] were 10.1 µM, 19 µM and 21.3 µM, respectively.
For the compound `CC(C)(O)[C@@H]1CC[C@]2(C)[C@H](CC[C@@]3(C)[C@H]2CC[C@H]2Cc4c([nH]c5ccccc45)[C@@]23C)O1` [PASPALINE], the Activity result in series [1] and in series [5] was “Non-toxic” in each case. Also, the IC50 stood at 12.8 µM in series [2], 7.6 µM in series [3] and 12.4 µM in series [4].

For the origin of these results see ChEMBL document CHEMBL3217526, “Bioguided discovery and pharmacophore modeling of the mycotoxic indole diterpene alkaloids penitrems as breast cancer proliferation, migration, and invasion inhibitors” (Medchemcomm, 2013).
